These results are taken from ChEMBL document CHEMBL1201862, “PubChem BioAssay data set” (2004).

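Compound exposure: 48 hours, 5 concentrations, 96-well plates. GI50 marks 50% less growth.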 The source made the active and inactive calls. Rule as the data show it: active = GI50 up to about 1.1 µM and inactive = higher.

Experiment in all cases: inhibition of tumour cell growth, NCI panel, 48 h
Test [1] has as its system DMS-114.
For test [2], the system named is DMS-273.
For test [3], the system named is HOP-18.
The test system of test [4] is KM-20L2.
Test [5] relates to LXFL 529.
Test [6] concerns M19-MEL.
Test [7] concerns SNB-78.
Test [8] relates to XF498.
Test [9] has as its system RXF 631.

With `Nc1nc(N)c(CCCCc2ccc([N+](=O)[O-])cc2)c(N)n1`, the GI50 was 20.8 µM (inactive) in [1]; 11.6 µM (inactive) in test [2]; > 100 µM (inactive) in test [3]; 36.1 µM (inactive) in [4]; 47.8 µM (inactive) in [5]; > 100 µM (inactive) in test [6]. Further, the GI50 in [7] and in [8] was > 100 µM (inactive) in each case.
Turning to `CNC(=O)NCCCC(NC(C)=O)C(=O)NCc1ccccc1` (stereo not given), the GI50 in test [1], in test [2], in test [4], in [5], in [6] and in test [9] was > 100 µM (inactive) in each case. Further, the GI50 in test [7] is > 100 µM (inactive).
Consider `COc1ccc(/C=c2/sc3n(c2=O)NC(c2ccc(Cl)cc2)NN=3)cc1` (stereo not given), for which the GI50 in test [1] is 58.5 µM (inactive); in test [2], > 100 µM (inactive); in test [4], > 100 µM (inactive); in test [5], > 100 µM (inactive); in test [6], > 100 µM (inactive); in [7], > 100 µM (inactive). Besides, in [8], the GI50 is 51.8 µM (inactive).
`Nc1nnc2c(-c3ccccc3)n[nH]c2n1`: the GI50 in test [1] was > 100 µM (inactive); in [2] it was 50.9 µM (inactive); in test [4] it was 49.8 µM (inactive); in [5], 77.4 µM (inactive); in [7], 49.3 µM (inactive).
For `CSc1nnc2n1-c1ccccc1SCC2`, the GI50 in test [1], in [2], in test [3], in test [4], in test [5] and in test [6] was > 100 µM (inactive) throughout. Further, the GI50 in test [7] and in [8] was > 100 µM (inactive) each time.
Regarding `CC(C)OP(=S)(NC(=S)c1ccccc1)OC(C)C`, the GI50 in test [1] is 78 µM (inactive); in test [2], > 100 µM (inactive); in test [4], > 100 µM (inactive); in test [5], 87.3 µM (inactive); in test [7], > 100 µM (inactive); in test [8], > 100 µM (inactive).
On to `O=C1C=CC2(O)OCC3C=C4O[C@@H]5OC6(CCCCC6)O[C@@H]5C4[C@@H]2[C@@H]13` (stereo not given in full), for which the GI50 in [1] was 21.5 µM (inactive); in test [2] it was 50.4 µM (inactive); in test [3] it was > 100 µM (inactive); in test [4], 48.3 µM (inactive); in [5], 15.1 µM (inactive); in [6] it was 21.1 µM (inactive). The GI50 in [7] is 24.4 µM (inactive); in test [8], 27.2 µM (inactive).
Consider `NCCCC1NC(=O)/C(=C(O)/C=C/C2CCC[C@@H]2CC2SCCS2)C1=O` (stereo not given in full), for which the GI50 in test [1] is 86.3 µM (inactive); in test [2] it was 74.8 µM (inactive); in test [3] it was 82.6 µM (inactive); in [4], > 100 µM (inactive); in [5], 75 µM (inactive); in [6] it was > 100 µM (inactive).
As to `Cc1nc(-c2nc(C)c(C(=O)NNC(=O)C[n+]3ccccc3)s2)sc1C(=O)NNC(=O)C[n+]1ccccc1`, the GI50 in test [1] was 66.8 µM (inactive); in test [4], > 100 µM (inactive); in test [5] it was 91 µM (inactive); in test [6] it was > 100 µM (inactive); in test [7], 54.8 µM (inactive).
For the compound `COc1ccc(NCc2cc(OC)c(OC)c(OC)c2)cc1`, the GI50 in test [2] is 0.178 µM (active); in [4] it was 0.238 µM (active); in test [5], 0.408 µM (active).
Take `CC(CN1CC(=O)NC(=O)C1)N1CC(=O)NC(=O)C1` (stereo not given) [RAZOXANE]: the GI50 is 67.9 µM (inactive) in [1]; 513 µM (inactive) in [2]; 277 µM (inactive) in test [3]; 174 µM (inactive) in [4]; 299 µM (inactive) in test [6]; 449 µM (inactive) in test [7]. Further, the GI50 in [8] was 234 µM (inactive).
